Test results published in PubChem BioAssay (NCI).
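Test compounds were applied to cells in 96-well plates for 48 hours at 5 doses. GI50: concentration for 50% inhibition of growth. The concentration for full growth arrest is given as TGI.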

Experiments:
Test in all cases: growth of human tumour cells (NCI), 48 h
SNB-19 CNS = test system: SNB-19 CNS
DU-145 prostate = test system: DU-145 prostate
T-47D breast = test system: T-47D breast
SF-268 CNS = test system: SF-268 CNS
CCRF-CEM leukemia = test system: CCRF-CEM leukemia
HCC-2998 colon = test system: HCC-2998 colon
OVCAR-8 ovarian = test system: OVCAR-8 ovarian
KM12 colon = test system: KM12 colon
HCT-15 colon = test system: HCT-15 colon
IGROV1 ovarian = test system: IGROV1 ovarian
SW-620 colon = test system: SW-620 colon
LOX IMVI melanoma = test system: LOX IMVI melanoma
MOLT-4 leukemia = test system: MOLT-4 leukemia
K-562 leukemia = test system: K-562 leukemia
OVCAR-3 ovarian = test system: OVCAR-3 ovarian
EKVX NSCLC = test system: EKVX NSCLC
UACC-257 melanoma = test system: UACC-257 melanoma
SF-539 CNS = test system: SF-539 CNS
MDA-MB-231 breast = test system: MDA-MB-231 breast
HOP-92 NSCLC = test system: HOP-92 NSCLC
OVCAR-4 ovarian = test system: OVCAR-4 ovarian
A549 NSCLC = test system: A549 NSCLC
OVCAR-5 ovarian = test system: OVCAR-5 ovarian
HS 578T breast = test system: HS 578T breast
SK-MEL-5 melanoma = test system: SK-MEL-5 melanoma
U251 CNS = test system: U251 CNS
NCI-H23 lung = test system: NCI-H23 lung

Question: For `CN(C)c1ccc2c(c1)Sc1cc(N(C)C)ccc1N2C(=O)c1ccccc1`, which GI50 (SNB-19 CNS) is on record?
Answer: Its GI50 is 34.2 µM.

Question: And the TGI (SNB-19 CNS)?
Answer: Its TGI is greater than 100 µM.

Question: And the GI50 (DU-145 prostate)?
Answer: The GI50 was greater than 100 µM.

Question: What about the TGI (DU-145 prostate) of the same compound?
Answer: Its TGI is greater than 100 µM.

Question: What about the GI50 (T-47D breast) of the same compound?
Answer: The GI50 was 35.2 µM.

Question: And the TGI (T-47D breast)?
Answer: The TGI was greater than 100 µM.

Question: What about the GI50 (SF-268 CNS) of the same compound?
Answer: The GI50 was 30.3 µM.

Question: What about the TGI (SF-268 CNS) of the same compound?
Answer: Its TGI is greater than 100 µM.

Question: And the GI50 (CCRF-CEM leukemia)?
Answer: The GI50 was greater than 100 µM.

Question: And the TGI (CCRF-CEM leukemia)?
Answer: The TGI was greater than 100 µM.

Question: And the GI50 (HCC-2998 colon)?
Answer: The GI50 was 73.2 µM.

Question: What about the TGI (HCC-2998 colon) of the same compound?
Answer: The TGI was greater than 100 µM.

Question: And the GI50 (OVCAR-8 ovarian)?
Answer: The GI50 was 50.3 µM.

Question: What about the TGI (OVCAR-8 ovarian) of the same compound?
Answer: The TGI was greater than 100 µM.

Question: And the GI50 (KM12 colon)?
Answer: The GI50 was 31.6 µM.

Question: And the TGI (KM12 colon)?
Answer: The TGI was greater than 100 µM.

Question: And the GI50 (HCT-15 colon)?
Answer: Its GI50 is 59.2 µM.

Question: What about the TGI (HCT-15 colon) of the same compound?
Answer: The TGI was greater than 100 µM.

Question: What about the GI50 (IGROV1 ovarian) of the same compound?
Answer: Its GI50 is 14.1 µM.

Question: And the TGI (IGROV1 ovarian)?
Answer: Its TGI is 77.6 µM.

Question: What about the GI50 (SW-620 colon) of the same compound?
Answer: The GI50 was 71.6 µM.

Question: What about the TGI (SW-620 colon) of the same compound?
Answer: The TGI was greater than 100 µM.

Question: And the GI50 (LOX IMVI melanoma)?
Answer: The GI50 was 24.2 µM.

Question: What about the TGI (LOX IMVI melanoma) of the same compound?
Answer: Its TGI is greater than 100 µM.

Question: And the GI50 (MOLT-4 leukemia)?
Answer: Its GI50 is 38.1 µM.

Question: And the TGI (MOLT-4 leukemia)?
Answer: Its TGI is greater than 100 µM.

Question: What about the GI50 (K-562 leukemia) of the same compound?
Answer: The GI50 was 2.69 µM.

Question: And the TGI (K-562 leukemia)?
Answer: The TGI was greater than 100 µM.

Question: And the GI50 (OVCAR-3 ovarian)?
Answer: The GI50 was 25.7 µM.

Question: What about the TGI (OVCAR-3 ovarian) of the same compound?
Answer: The TGI was greater than 100 µM.

Question: And the GI50 (EKVX NSCLC)?
Answer: Its GI50 is 13.2 µM.

Question: And the TGI (EKVX NSCLC)?
Answer: Its TGI is greater than 100 µM.

Question: And the GI50 (UACC-257 melanoma)?
Answer: Its GI50 is greater than 100 µM.

Question: And the TGI (UACC-257 melanoma)?
Answer: Its TGI is greater than 100 µM.

Question: And the GI50 (SF-539 CNS)?
Answer: The GI50 was 38.2 µM.

Question: What about the TGI (SF-539 CNS) of the same compound?
Answer: Its TGI is greater than 100 µM.

Question: And the GI50 (MDA-MB-231 breast)?
Answer: Its GI50 is 64.2 µM.

Question: And the TGI (MDA-MB-231 breast)?
Answer: Its TGI is greater than 100 µM.

Question: And the GI50 (HOP-92 NSCLC)?
Answer: The GI50 was 5.04 µM.

Question: What about the TGI (HOP-92 NSCLC) of the same compound?
Answer: Its TGI is 89.9 µM.

Question: What about the GI50 (OVCAR-4 ovarian) of the same compound?
Answer: Its GI50 is 44.6 µM.

Question: What about the TGI (OVCAR-4 ovarian) of the same compound?
Answer: Its TGI is greater than 100 µM.

Question: What about the GI50 (A549 NSCLC) of the same compound?
Answer: The GI50 was 32.5 µM.

Question: And the TGI (A549 NSCLC)?
Answer: The TGI was greater than 100 µM.

Question: And the GI50 (OVCAR-5 ovarian)?
Answer: Its GI50 is greater than 100 µM.

Question: And the TGI (OVCAR-5 ovarian)?
Answer: The TGI was greater than 100 µM.

Question: What about the GI50 (HS 578T breast) of the same compound?
Answer: Its GI50 is 10.8 µM.

Question: And the TGI (HS 578T breast)?
Answer: The TGI was 57.4 µM.

Question: What about the GI50 (SK-MEL-5 melanoma) of the same compound?
Answer: Its GI50 is 28.1 µM.

Question: What about the TGI (SK-MEL-5 melanoma) of the same compound?
Answer: The TGI was greater than 100 µM.

Question: What about the GI50 (U251 CNS) of the same compound?
Answer: Its GI50 is 45.5 µM.

Question: And the TGI (U251 CNS)?
Answer: Its TGI is greater than 100 µM.

Question: And the GI50 (NCI-H23 lung)?
Answer: Its GI50 is 27.7 µM.
